Reference: PMC11899342, “Novel Triazeneindole Antibiotics: Synthesis and Hit-to-Lead Optimization” (International Journal of Molecular Sciences, 2025)
Values after ≈ are worked out from the molar mass of the structure shown. Like-named read-outs stand apart in the source and are kept apart here.

What was measured:
[1] = test system: human embryonic fibroblasts (HEFs); test: MTT cytotoxicity on human embryonic fibroblasts; type: cell-based; settings: Homo sapiens, Fibroblast, 24 h, ND = non-toxic in tested concentrations (up to 50 mg/L)
Experimental: (§1) The primary screening of 22 substances was performed on human embryonic fibroblasts (HEFs). […] The HepG2 cell line was obtained from the American Type Culture Collection (ATCC cat. # HB-8065). The primary HEF cells (normal human embryonic fibroblasts) were derived from human embryonic stem cells. The cells were cultured in DMEM/F12 (1:1) medium containing 10% fetal bovine serum (Invitrogen, Carlsbad, CA, USA) at 37 °C and 5% CO2, according to standard mammalian tissue culture protocols and sterile technique. […] The incubation time with the substance was 24 h for all substances and cell lines. Cell detachment by trypsin, centrifugation, and counting in a hemocytometer were performed 16 h before the addition of the substance. For correct counting of the HepG2 cells, the cell suspension was passed through a syringe needle to get rid of cell aggregates. The cells were placed in the wells of a 96-well plate. The number of cells was selected according to the properties of the cell line and the final optical density in the experiment. Fibroblasts and hepatocytes were used in the amount of 10 thousand cells per well in 100 μL of DMEM/F12 medium supplemented with 10% fetal bovine serum. The substances were added to 100 µL of medium in the wells so that the final concentrations were 50, 25, 12.5, 6.25, 3.125, and 1.62 mg/L. The final well volume was 200 µL. The medium containing fetal bovine serum, without added substances, was used as a negative control. After 24 h, excessive amounts of medium were discarded. A total of 30 µL of MTT solution (5 mg/mL in PBS) was added to each well. After the precipitation of formazan crystals (3 h incubation), they were dissolved using 100 μL of dimethyl sulfoxide. The optical density (OD) was measured at 570 nm using a microplate reader (Eppendorf). For every condition, the cell viabilities were assessed in at least three independent experiments for every cell culture. Cell survival was calculated using the following formula:(OD of treated cells − OD blank)/(OD of control cells − OD blank) × 100%, where OD blank represents the OD values in wells without cells but with the addition of the MTT and DMSO solutions. The results were presented in the form of cytotoxicity curves, and the graphs were also plotted in a Microsoft Excel program; the calculation of the IC50 half-maximal inhibition concentration values was performed in a GraphPad Prism 6.0 (GraphPad Software Inc., San Diego, CA, USA) program, based on the equations of the cytotoxicity curves.

[2] = Solubility in water by HPLC; type: physicochemical; settings: water
In short: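 Compound (1.0 mg in 10 μL DMSO) mixed with 1.0 mL water, shaken 5 min and centrifuged; supernatant analysed by C18 HPLC. Water concentration derived from peak area relative to an acetonitrile standard at 1.0 mg/mL.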

[3] = test system: MRSA; test: Selectivity index (average IC50 on eukaryotic cells / average MIC on MRSA); type: cell-based, Staphylococcus aureus; settings: average IC50 on eukaryotic cells divided by average MIC on MRSA
Experimental: The selectivity index was calculated for each compound as the average IC50 on eukaryotic cells divided by the average MIC on MRSA (Table 2).

[4] = test system: HepG2 human liver carcinoma cells; test: MTT cytotoxicity (hepatotoxicity) on HepG2; type: cell-based; settings: Homo sapiens, HepG2, 24 h
Experimental: as §1

[5] = test system: MRSA clinical isolates; test: MIC by broth microdilution against multidrug-resistant MRSA clinical isolates; type: cell-based, Staphylococcus aureus; settings: for MIC: Staphylococcus aureus
In short: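 Multidrug-resistant clinical MRSA isolates, 1 × 10^6 CFU/mL suspension in Mueller Hinton broth, broth microdilution with compounds at final 1, 0.5, 0.25 and 0.125 mg/L. Incubated 18 h at 37 °C; MIC taken as lowest concentration with no visible growth, triplicate.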

## CCOC(=O)c1[nH]c2cc(F)ccc2c1/N=N/N1CCCC1 [BX-SI043, Ethyl (E)-6-fluoro-3-(pyrrolidin-1-yldiazenyl)-1H-indole-2-carboxylate]
[1]
  IC50: 19 µg/mL (≈ 62.4 µM)
[2]; read-out: Solubility in water, mass concentration
  solubility at 5 min: 0.88 µg/mL
[2]; read-out: Solubility in water, molar concentration
  solubility at 5 min: 3 µM
[3]
  Selectivity Index: 76
[4]
  IC50: 19 µg/mL (≈ 62.4 µM)
[5]; 8 multidrug-resistant MRSA clinical isolates, tested 0.125-1 mg/L
  MIC Range Against 8 MRSA Strains: 0.25 µg/mL (≈ 0.821 µM)
[5]; 41 multidrug-resistant MRSA strains
  minimal inhibitory concentration range: 0.125 to 0.5 µg/mL
[5]; MRSA
  times lower MIC than either vancomycin or linezolid: 4–8 times
[5]; MRSA, 8 MRSA strains, read-out: lowest MIC values against most tested strains
  MIC: 0.25 µg/mL (≈ 0.821 µM)
[5]; MRSA, Figure 6, MRSA strain 2, read-out: MIC against 8 MRSA strains
  MIC: 0.25 µg/mL (≈ 0.821 µM)
[5]; MRSA, Figure 6, MRSA strain 7, read-out: MIC against 8 MRSA strains
  MIC: 0.25 µg/mL (≈ 0.821 µM)
[5]; MRSA, Figure 6, MRSA strain 8, read-out: MIC against 8 MRSA strains
  MIC: 0.25 µg/mL (≈ 0.821 µM)
[5]; MRSA, Figure 6, MRSA strain 9, read-out: MIC against 8 MRSA strains
  MIC: 0.25 µg/mL (≈ 0.821 µM)
[5]; MRSA, Figure 6, MRSA strain 13, read-out: MIC against 8 MRSA strains
  MIC: 0.25 µg/mL (≈ 0.821 µM)
[5]; MRSA, Figure 6, MRSA strain 21, read-out: MIC against 8 MRSA strains
  MIC: 0.25 µg/mL (≈ 0.821 µM)
[5]; MRSA, Figure 6, MRSA strain 48, read-out: MIC against 8 MRSA strains
  MIC: 0.25 µg/mL (≈ 0.821 µM)
[5]; MRSA, Figure 6, MRSA strain 50, read-out: MIC against 8 MRSA strains
  MIC: 0.25 µg/mL (≈ 0.821 µM)
[5]; MRSA, Table S4, MRSA strain 1, read-out: MIC
  MIC: 0.25 µg/mL (≈ 0.821 µM)
[5]; MRSA, Table S4, MRSA strain 2, read-out: MIC
  MIC: 0.5 µg/mL (≈ 1.64 µM)
[5]; MRSA, Table S4, MRSA strain 3, read-out: MIC
  MIC: 0.5 µg/mL (≈ 1.64 µM)
[5]; MRSA, Table S4, MRSA strain 4, read-out: MIC
  MIC: 0.5 µg/mL (≈ 1.64 µM)
[5]; MRSA, Table S4, MRSA strain 5, read-out: MIC
  MIC: 0.25 µg/mL (≈ 0.821 µM)
[5]; MRSA, Table S4, MRSA strain 6, read-out: MIC
  MIC: 0.5 µg/mL (≈ 1.64 µM)
[5]; MRSA, Table S4, MRSA strain 7, read-out: MIC
  MIC: 0.5 µg/mL (≈ 1.64 µM)
[5]; MRSA, Table S4, MRSA strain 8, read-out: MIC
  MIC: 0.25 µg/mL (≈ 0.821 µM)
[5]; MRSA, Table S4, MRSA strain 9, read-out: MIC
  MIC: 0.5 µg/mL (≈ 1.64 µM)
[5]; MRSA, Table S4, MRSA strain 10, read-out: MIC
  MIC: 0.25 µg/mL (≈ 0.821 µM)
[5]; MRSA, Table S4, MRSA strain 12, read-out: MIC
  MIC: 0.25 µg/mL (≈ 0.821 µM)
[5]; MRSA, Table S4, MRSA strain 13, read-out: MIC
  MIC: 0.5 µg/mL (≈ 1.64 µM)
[5]; MRSA, Table S4, MRSA strain 14, read-out: MIC
  MIC: 0.25 µg/mL (≈ 0.821 µM)
[5]; MRSA, Table S4, MRSA strain 15, read-out: MIC
  MIC: 0.25 µg/mL (≈ 0.821 µM)
[5]; MRSA, Table S4, MRSA strain 16, read-out: MIC
  MIC: 0.25 µg/mL (≈ 0.821 µM)
[5]; MRSA, Table S4, MRSA strain 17, read-out: MIC
  MIC: 0.5 µg/mL (≈ 1.64 µM)
[5]; MRSA, Table S4, MRSA strain 18, read-out: MIC
  MIC: 0.5 µg/mL (≈ 1.64 µM)
[5]; MRSA, Table S4, MRSA strain 21, read-out: MIC
  MIC: 0.5 µg/mL (≈ 1.64 µM)
[5]; MRSA, Table S4, MRSA strain 23, read-out: MIC
  MIC: 0.5 µg/mL (≈ 1.64 µM)
[5]; MRSA, Table S4, MRSA strain 24, read-out: MIC
  MIC: 0.5 µg/mL (≈ 1.64 µM)
[5]; MRSA, Table S4, MRSA strain 25, read-out: MIC
  MIC: 0.5 µg/mL (≈ 1.64 µM)
[5]; MRSA, Table S4, MRSA strain 26, read-out: MIC
  MIC: 0.25 µg/mL (≈ 0.821 µM)
[5]; MRSA, Table S4, MRSA strain 27, read-out: MIC
  MIC: 0.5 µg/mL (≈ 1.64 µM)
[5]; MRSA, Table S4, MRSA strain 28, read-out: MIC
  MIC: 0.5 µg/mL (≈ 1.64 µM)
[5]; MRSA, Table S4, MRSA strain 29, read-out: MIC
  MIC: 0.5 µg/mL (≈ 1.64 µM)
[5]; MRSA, Table S4, MRSA strain 30, read-out: MIC
  MIC: 0.5 µg/mL (≈ 1.64 µM)
[5]; MRSA, Table S4, MRSA strain 31, read-out: MIC
  MIC: 0.5 µg/mL (≈ 1.64 µM)
[5]; MRSA, Table S4, MRSA strain 34, read-out: MIC
  MIC: 0.125 µg/mL (≈ 0.411 µM)
[5]; MRSA, Table S4, MRSA strain 35, read-out: MIC
  MIC: 0.5 µg/mL (≈ 1.64 µM)
[5]; MRSA, Table S4, MRSA strain 36, read-out: MIC
  MIC: 0.25 µg/mL (≈ 0.821 µM)
[5]; MRSA, Table S4, MRSA strain 40, read-out: MIC
  MIC: 0.5 µg/mL (≈ 1.64 µM)
[5]; MRSA, Table S4, MRSA strain 41, read-out: MIC
  MIC: 0.25 µg/mL (≈ 0.821 µM)
[5]; MRSA, Table S4, MRSA strain 42, read-out: MIC
  MIC: 0.5 µg/mL (≈ 1.64 µM)
[5]; MRSA, Table S4, MRSA strain 43, read-out: MIC
  MIC: 0.5 µg/mL (≈ 1.64 µM)
[5]; MRSA, Table S4, MRSA strain 44, read-out: MIC
  MIC: 0.5 µg/mL (≈ 1.64 µM)
[5]; MRSA, Table S4, MRSA strain 45, read-out: MIC
  MIC: 0.5 µg/mL (≈ 1.64 µM)
[5]; MRSA, Table S4, MRSA strain 46, read-out: MIC
  MIC: 0.5 µg/mL (≈ 1.64 µM)
[5]; MRSA, Table S4, MRSA strain 48, read-out: MIC
  MIC: 0.5 µg/mL (≈ 1.64 µM)
[5]; MRSA, Table S4, MRSA strain 49, read-out: MIC
  MIC: 0.25 µg/mL (≈ 0.821 µM)
[5]; MRSA, Table S4, MRSA strain 50, read-out: MIC
  MIC: 0.5 µg/mL (≈ 1.64 µM)
[5]; MRSA, Table S4, MRSA strain 51, read-out: MIC
  MIC: 0.5 µg/mL (≈ 1.64 µM)
